Data reported in US20200360341A1, “INDOMETHACIN MENTHYL ESTER-BASED PHARMACEUTICAL COMPOSITIONS AND THEIR USE AS ANTI-INFLAMMATORY AGENTS” (OBSHESTVO S OGRANICHENNOI OTVETSTVENNOSTJU "FORBOS”, priority 2017, published 2020).

What was measured:
[1] = tested on: yeast-induced fever; assay: Yeast-induced fever (antipyretic activity); assay type: in vivo, rats (Sprague Dawley); settings: n = 6
Procedure: Antipyretic activity of MEI-based pharmaceutical composition was studied in a model of yeast-induced fever in rats. Rats of Sprague Dawley stock were used. Fever was induced in rats by subcutaneous administration of baker's yeast suspension in 2000 mg/kg dose (calculated for dry yeast basis) in 2 ml volume into the animal withers 18 hours before test compound administration. Animal body temperature was measured using an electronic rectal thermometer (MLT1403 Rectal Temperature Probe and PowerLab 4/35 4-channel registration system module, ADlnstruments PtyLtd, Australia). Temperature was measured before yeast administration and 18 h after yeast administration. Afterwards the animals were administered the test compound, MEI-based pharmaceutical composition (composition 3—MEI solution, produced as described in Example 3) in 25, 50 and 100 mg/kg doses. Indomethacin in 10 mg/kg dose was used as a reference drug. Animals in control group have received the vehicle. Temperature was measured 2 and 4 hours after test compound administration.

[2] = rats, oral administration; cited from earlier work
[3] = tested on: gastric mucosa; assay: Ulcerogenic action on gastric mucosa after fourfold oral administration; assay type: in vivo, rats; settings: for Average score (ulcerogenic action) / Average number of erosions / Average number of ulcers: 4 times orally; for Average score (ulcerogenic action): scale 0 (no damage) to 4 (gross damage); for Average number of erosions / Average number of ulcers: stomach 3 h after last administration
Procedure: Ulcerogenic action was measured using the following 4-point scale: 0—no damage; 0.5—slight hyperemia of gastric mucosa; 1—weak localized damage of gastric mucosa (single point bleeding, severe hyperemia); 2—weak distributed damage of gastric mucosa (small ulcers, erosions, multiple bleeding); 3—severe and distributed damage of gastric mucosa (erosions, ulcers, bleeding); 4—gross damage of the whole stomach (massive bleeding, erosion, ulcers, perforation).

[4] = tested on: adjuvant-induced rheumatoid arthritis; assay: Adjuvant-induced rheumatoid arthritis, inflammation severity by plethysmography; assay type: in vivo
Procedure: (§1) Anti-inflammatory and analgesic activity of MEI-based pharmaceutical composition after oral administration was studied in a model of chronic inflammation—adjuvant-induced rheumatoid arthritis in rats. To induce arthritis the rats were administered 100 mcl of complete Freund adjuvant (CFA), supplied by Sigma Aldrich, into the plantar surface of right hind paw. The control (intact) group 1 has received 100 mcl of saline. After CFA injection, local inflammation develops in a few hours, with subsequent pathologic changes in metacarpophalangeal joints and distal interphalangeal joints. Test compound (composition 3—MEI solution) and the reference drug (indomethacin) were administered once daily orally for 22 days, starting from 7th day after pathology induction. Test compound was administered in 6.25, 12.5 and 25 mg/kg doses. […] To assess the anti-inflammatory action of MEI in animals by pelthysmography, inflammation severity was measured as the difference between the masses of control and test paws, expressed in ml. Analgesic activity of MEI in animals was assessed by tactile reactivity threshold using the method of Chaplan et al. using the kit of 8 standard von Frey hairs (Stoelting, USA).

[5] = Pharmacokinetics: indomethacin in blood plasma after oral administration; assay type: in vivo, rats (Sprague Dawley); settings: 25 mg/kg
Procedure: Pharmacokinetic properties of two MEI-based compositions were studied: composition 1 (liposome-encapsulated MEI), produced as described in example 1, and composition 3 (MEI solution), produced as described in example 3. MEI substance (as a suspension in starch solution) and indomethacin were used as reference drugs. Rats of Sprague Dawley stock were used. All test compounds were administered orally to rats in 25 mg/kg dose. Animal blood was sampled at certain time points (0; 0.25; 0.5; 1, 2, 4, 8, 16 and 24 hours) for analysis. Indomethacin content in animal blood plasma was determined using high-performance liquid chromatography (HPLC) method.

[6] = tested on: adjuvant-induced rheumatoid arthritis; assay: Adjuvant-induced rheumatoid arthritis, tactile reactivity threshold (von Frey hairs); assay type: in vivo, rats
Procedure: as §1

[7] = tested on: serotonin-induced edema; assay: Serotonin-induced paw edema (acute inflammation); assay type: in vivo, rats (Sprague Dawley); settings: oral; for Inflammation inhibition index: 2 h before serotonin, 30 min after serotonin, n = 8
Procedure: Anti-inflammatory activity of MEI-based pharmaceutical compositions compared to MEI substance (as a suspension in starch solution) and indomethacin after oral administration was studied in a model of acute inflammation-paw edema induced by inflammation mediator serotonin. Rats of Sprague Dawley stock were used. […] Test compounds were administered orally 2 hours before the serotonin administration. […] Inflammation severity was measured by plethyosmography as the difference between the masses of control and test paws, expressed in ml. Anti-inflammatory activity of the test compounds was assessed by the inhibition index, calculated using the following formula: II=(([…])×100%, where II-inflammation inhibition index in %; Set-severity of inflammation in the control group, ml; St-severity of inflammation in the test group, ml.

[8] = tested on: carrageenan-induced edema; assay: Carrageenan-induced edema, intraperitoneal administration; assay type: in vivo, rats (Sprague Dawley); settings: after 4 h
Procedure: Anti-inflammatory activity of MEI-based pharmaceutical composition after parenteral administration was studied in a model of carrageenan-induced edema. Rats of Sprague Dawley stock were used. 50 mcl of saline (“sodium chloride 0.9% solution for infusion”, NPK ESCOM, Russia) was injected intraplantarly into one hind paw (control paw), while 50 mcl of 1% λ-carrageenan solution was injected into another paw.
Inflammation severity was measured after 4 h using a plethysmometer (IITC Life Science, USA). Inflammation severity was measured by plethyosmography as the difference between the masses of control and test paws, expressed in ml. Test compound, pharmaceutical composition […] (MEI solution) was administered parenterally (intraperitoneally) 1 hour before λ-carrageenan administration, animals receiving the same amount of the vehicle were used as control. The animals were deprived of food 24 h before the study, water access was not limited.

[9] = 1 mg/kg oral once daily from day 7, day 21
[10] = 1 mg/kg oral once daily from day 7, day 28
[11] = 1 mg/kg oral once daily, day 7 (before test compound administration)
[12] = composition 3 (MEI solution) 25 mg/kg oral
[13] = composition 3 (MEI solution) 50 mg/kg oral
[14] = composition 3 (MEI solution) 100 mg/kg oral
[15] = MEI-based composition 100 mg/kg
[16] = composition 3 (MEI solution) 6.25 mg/kg oral once daily from day 7, day 21
[17] = composition 3 (MEI solution) 6.25 mg/kg oral once daily from day 7, day 28
[18] = composition 3 (MEI solution) 6.25 mg/kg oral once daily, day 7 (before test compound administration)
[19] = composition 3 (MEI solution) 12.5 mg/kg oral once daily from day 7, day 21
[20] = composition 3 (MEI solution) 12.5 mg/kg oral once daily from day 7, day 28
[21] = composition 3 (MEI solution) 12.5 mg/kg oral once daily, day 7 (before test compound administration)
[22] = composition 3 (MEI solution) 25 mg/kg oral once daily from day 7, day 21
[23] = composition 3 (MEI solution) 25 mg/kg oral once daily from day 7, day 28
[24] = composition 3 (MEI solution) 25 mg/kg oral once daily, day 7 (before test compound administration)

COc1ccc2c(c1)c(CC(=O)O)c(C)n2C(=O)c1ccc(Cl)cc1 [Indomethacin, 1-(4-chlorobenzoyl)-5-methoxy-2-methyl-1H-indole-3-acetic acid]
Average body temperature 2 h after test compound administration ([1]; 10 mg/kg): −0.98 °C | Average body temperature 4 h after test compound administration ([1]; 10 mg/kg): −0.85 °C | LD50 [2]: less than 15 mg/kg | Average score (ulcerogenic action) ([3]; 5 mg/kg): 3 | Average number of erosions ([3]; 5 mg/kg): 3.2 | Average number of ulcers ([3]; 5 mg/kg): 8 | gastric mucosa findings ([3]; four 5 mg/kg doses, oral): multiple ulcers and erosions | inflammation severity ([4]; 1 mg/kg oral once daily from day 7, day 14): 1.8 ± 0.24 mL | inflammation severity [4, 9]: 1.5 ± 0.18 mL | inflammation severity [4, 10]: 1.4 ± 0.28 mL | inflammation severity [4, 11]: 3.0 ± 0.59 mL | animal mortality ([4]; 5 mg/kg, oral once daily, arthritis model): animal mortality is observed | Tmax ([5]; Sprague-Dawley, rat blood plasma, read-out: time of reaching the maximal concentration (Tmax) of indomethacin): 4 h | Cmax ([5]; Sprague-Dawley, rat, plasma, indomethacin measured by HPLC, read-out: maximal concentration of indomethacin in rat blood plasma (Cmax)): 65.5 µg/mL | median-effective tactile reactivity threshold in an injected limb [6, 9]: 14.5 ± 3.18 g | median-effective tactile reactivity threshold in an injected limb [6, 10]: 16.0 ± 3.04 g | median-effective tactile reactivity threshold in an injected limb [6, 11]: 9.9 ± 2.34 g | Inflammation inhibition index ([7]; 10 mg/kg): 43.5%

COc1ccc2c(c1)c(CC(=O)OC1CC(C)CCC1C(C)C)c(C)n2C(=O)c1ccc(Cl)cc1 (stereo not shown) [MEI]
Edema size ([8]; composition No 4 (MEI solution) 0.1 mg/kg intraperitoneally 1 h before carrageenan): 1.011 ± 0.115 mL | Edema size, % from control ([8]; composition No 4 (MEI solution) 0.1 mg/kg intraperitoneally): 91.2 % from control | Edema size ([8]; composition No 4 (MEI solution) 0.5 mg/kg intraperitoneally 1 h before carrageenan): 0.675 ± 0.065 mL | Edema size, % from control ([8]; composition No 4 (MEI solution) 0.5 mg/kg intraperitoneally): 60.9 % from control | Edema size ([8]; composition No 4 (MEI solution) 1.0 mg/kg intraperitoneally 1 h before carrageenan): 0.552 ± 0.097 mL | Edema size, % from control ([8]; composition No 4 (MEI solution) 1.0 mg/kg intraperitoneally): 45.0 % from control | Edema size ([8]; composition No 4 (MEI solution) 10 mg/kg intraperitoneally 1 h before carrageenan): 0.201 ± 0.176 mL | Edema size, % from control ([8]; composition No 4 (MEI solution) 10 mg/kg intraperitoneally): 18.1 % from control | Edema size ([8]; composition No 4 (MEI solution) 50 mg/kg intraperitoneally 1 h before carrageenan): 0.288 ± 0.152 mL | Edema size, % from control ([8]; composition No 4 (MEI solution) 50 mg/kg intraperitoneally): 26.0 % from control | Average body temperature 2 h after test compound administration [1, 12]: −0.53 °C | Average body temperature 4 h after test compound administration [1, 12]: −0.45 °C | Average body temperature 2 h after test compound administration [1, 13]: −0.93 °C | Average body temperature 4 h after test compound administration [1, 13]: −0.82 °C | Average body temperature 2 h after test compound administration [1, 14]: −0.78 °C | Average body temperature 4 h after test compound administration [1, 14]: −0.68 °C | Average score (ulcerogenic action) ([3]; MEI-based composition 25 mg/kg): 0 | Average number of erosions ([3]; MEI-based composition 25 mg/kg): 0 | Average number of ulcers ([3]; MEI-based composition 25 mg/kg): 0 | Average score (ulcerogenic action) ([3]; MEI-based composition 50 mg/kg): 0 | Average number of erosions ([3]; MEI-based composition 50 mg/kg): 0 | Average number of ulcers ([3]; MEI-based composition 50 mg/kg): 0 | Average score (ulcerogenic action) [3, 15]: 0.4 | Average number of erosions [3, 15]: 0 | Average number of ulcers [3, 15]: 0.8 | inflammation severity ([4]; composition 3 (MEI solution) 6.25 mg/kg oral once daily from day 7, day 14): 2.5 ± 0.76 mL | inflammation severity [4, 16]: 1.8 ± 0.49 mL | inflammation severity [4, 17]: 1.9 ± 0.51 mL | inflammation severity [4, 18]: 2.8 ± 0.54 mL | inflammation severity ([4]; composition 3 (MEI solution) 12.5 mg/kg oral once daily from day 7, day 14): 1.9 ± 0.37 mL | inflammation severity [4, 19]: 2.0 ± 0.40 mL | inflammation severity [4, 20]: 1.1 ± 0.21 mL | inflammation severity [4, 21]: 2.6 ± 0.38 mL | inflammation severity ([4]; composition 3 (MEI solution) 25 mg/kg oral once daily from day 7, day 14): 1.5 ± 0.22 mL | inflammation severity [4, 22]: 0.9 ± 0.07 mL | inflammation severity [4, 23]: 0.8 ± 0.12 mL | inflammation severity [4, 24]: 2.4 ± 0.43 mL | indomethacin concentration in blood plasma ([5]; suspension in starch solution, any time point 0-24 h): below the detection limit | median-effective tactile reactivity threshold in an injected limb [6, 16]: 10.4 ± 3.09 g | median-effective tactile reactivity threshold in an injected limb [6, 17]: 9.6 ± 2.67 g | median-effective tactile reactivity threshold in an injected limb [6, 18]: 11.7 ± 2.93 g | median-effective tactile reactivity threshold in an injected limb [6, 19]: 13.3 ± 2.55 g | median-effective tactile reactivity threshold in an injected limb [6, 20]: 14.8 ± 2.35 g | median-effective tactile reactivity threshold in an injected limb [6, 21]: 11.8 ± 3.12 g | median-effective tactile reactivity threshold in an injected limb [6, 22]: 16.6 ± 2.64 g | median-effective tactile reactivity threshold in an injected limb [6, 23]: 18.2 ± 2.57 g | median-effective tactile reactivity threshold in an injected limb [6, 24]: 9.8 ± 2.14 g | anti-inflammatory effect in model of acute inflammation ([7]; 25 mg/kg): doesn't have significant anti-inflammatory effects | Inflammation inhibition index ([7]; 25 mg/kg active agent): 4.3%
